The results in this text go back to ChEMBL document CHEMBL1201862, “PubChem BioAssay data set” (2004).

Experiment [1] addresses Mitochondrial peptide methionine sulfoxide reductase (Bos taurus, UniProt P54149). It counts as functional.
Experiment [2] deals with T1, Methionyl-tRNA synthetase, putative (Trypanosoma brucei brucei, UniProt Q38C91). Type of experiment: functional, Trypanosoma brucei brucei strain 927/4 GUTat10.1.
For experiment [3], the target named is T1, Methionyl-tRNA synthetase, putative. It counts as functional, Trypanosoma brucei brucei strain 927/4 GUTat10.1. The source holds these as a separate data set.
Experiment [4] is described as follows: Counterscreen for inhibitors of Trypanosoma brucei methionyl tRNA synthetase (MetRS): Luminescence-based cell-based high throughput dose response assay to identify compounds that are cytotoxic to Jurkat human T lymphocyte cells. Type of experiment: functional.
Experiment [5] is described as follows: intracellular Trypanosoma cruzi inhibitors in host cells – cell-based, plate reader, cherry-pick samples, set 3, dose response (AID 651818).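 Also: compounds incubated with infected cells for about four days.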 Type of experiment: functional.
The nature of experiment [6]: HEK293 cell viability, dose response, counter-screen for EBV LMP1 inhibitor project, dry powder, set 2 (AID 624374). Type of experiment: functional.
The target of experiment [7] is Adenosylmethionine-8-amino-7-oxononanoate aminotransferase (Mycobacterium tuberculosis, UniProt P9WQ81). The experiment in a line: Mycobacterium tuberculosis BioA enzyme inhibitor Measured in Biochemical System Using Plate Reader - 2163-02_Inhibitor_Dose_CherryPick_Activity. It counts as functional, Mycobacterium tuberculosis UT205.
The target of experiment [8] is T2, Zinc finger protein mex-5 (Caenorhabditis elegans, UniProt Q9XUB2).
T2 sequence (Q9XUB2 whole entry): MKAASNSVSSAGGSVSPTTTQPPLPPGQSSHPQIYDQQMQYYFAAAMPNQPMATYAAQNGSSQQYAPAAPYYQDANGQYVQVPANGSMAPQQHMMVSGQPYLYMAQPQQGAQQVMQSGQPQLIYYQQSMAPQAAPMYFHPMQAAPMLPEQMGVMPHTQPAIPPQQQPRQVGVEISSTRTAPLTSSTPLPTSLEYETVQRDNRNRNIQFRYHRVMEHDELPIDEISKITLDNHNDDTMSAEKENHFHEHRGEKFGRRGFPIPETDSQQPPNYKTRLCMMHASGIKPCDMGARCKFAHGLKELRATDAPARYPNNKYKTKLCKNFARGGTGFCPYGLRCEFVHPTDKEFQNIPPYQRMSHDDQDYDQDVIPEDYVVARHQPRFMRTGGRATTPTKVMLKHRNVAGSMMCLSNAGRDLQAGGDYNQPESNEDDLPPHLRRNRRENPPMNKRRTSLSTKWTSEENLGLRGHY
The experiment in a line: MEX-5/TCR-2 RNA interaction inhibitors, dose response, biochemical, C. elegans, fluorescence polarization (AID 1960).

The target of experiment [9] is T3, Sentrin-specific protease 1 (Homo sapiens, UniProt Q9P0U3). The experiment in a line: Dose response confirmation of small molecule inhibitors of the catalytic domain of the SUMO protease, SENP1 in a FRET assay. To be noted: read-out: IC50_Mean. It counts as functional.
Experiment [10] concerns the target T4, RNA-binding protein pos-1 (Caenorhabditis elegans, UniProt G5EF15).
T4 sequence (G5EF15 whole entry): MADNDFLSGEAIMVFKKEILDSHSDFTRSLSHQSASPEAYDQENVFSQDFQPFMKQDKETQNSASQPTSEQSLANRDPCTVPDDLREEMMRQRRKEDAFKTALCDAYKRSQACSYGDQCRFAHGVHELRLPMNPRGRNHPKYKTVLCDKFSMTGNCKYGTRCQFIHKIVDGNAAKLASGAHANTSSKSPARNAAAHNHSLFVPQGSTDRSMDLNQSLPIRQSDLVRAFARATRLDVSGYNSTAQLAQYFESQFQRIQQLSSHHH
The experiment in a line: inhibitors of POS-1/mex-3 RNA binding, dose response, biochemical, fluorescence polarization (AID 1964).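 Also: purified POS-1 fused to maltose binding protein made in E. coli; potency of compounds blocking POS-1 binding to fluorescent RNA.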

Experiment [11] concerns the target T3, Sentrin-specific protease 1. The experiment in a line: potency of human SENP1 inhibitors, dose response, biochemical, kinetic FRET (AID 651697). It counts as functional. To be noted: read-out: IC50_Mean.
Experiment [12] concerns the target G-protein coupled receptor 55 (Homo sapiens, UniProt Q9Y2T6). In words: GPR55 antagonists blocking LPI-driven arrestin recruitment, primary screen, imaging, U2OS, beta-arrestin-GFP, LPI agonist (AID 2013).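 Also: antagonist potency measured as reduced agonist-driven arrestin aggregation.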 Type of experiment: functional.
Experiment [13] is described as follows: HEK293T cell cytotoxicity, dose response, cytotoxicity control for HIV Vif inhibitor project, cherry-picks (AID 652208). It counts as functional, cell-based.
In a further experiment the target is Protein Wnt-3a (Mus musculus, UniProt P27467). In words: Wnt3a-driven reporter signaling inhibition, dose response, selectivity assay for Gli-SUFU antagonist project, Wnt-LIGHT cells, luminescence (AID 651570).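 Also: Wnt-LIGHT reporter cells stimulated with conditioned medium from Wnt3a-producing cells.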 Type of experiment: functional. To be noted: read-out: IC50_Mean.
Experiment [14] in a line: HepG2 cell cytotoxicity, dose response, cytotoxicity control for Shn3 inhibitor project, CellTiter-Glo, cherry-picked (AID 624134). It counts as functional, cell-based.
In experiment [15] the target is COUP transcription factor 2 (Homo sapiens, UniProt P24468). In words: Luminescence-based cell-based high throughput dose response assay to identify inhibitors of COUP-TFII (NR2F2). Type of experiment: functional.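 Also: HEK293 cells transiently cotransfected with COUP-TFII expression vector and reporter; luciferase reporter luminescence driven by COUP-TFII from the pX2-168 reporter plasmid.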
In the next experiment the test system is INS1. In words: beta cell apoptosis inhibitors, cytokine rescue, dose response, luminescence, retest (AID 449756).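 Also: cell death triggered by IL-1 beta plus TNF-alpha plus IFN-gamma mixture; protective hits raise ATP signal compared with cytokine alone wells.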 To be noted: Rattus norvegicus. It counts as functional, cell-based.
The nature of experiment [16]: Shn3 3'UTR reporter inhibitors, dose response, cell-based, Clone20 osteoblasts, firefly luciferase, cherry-picked (AID 624132).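 Also: firefly luciferase luminescence from reporter carrying the Shn3 3'UTR in osteoblasts.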 Type of experiment: functional.
Experiment [17] is described as follows: control 3'UTR Renilla luciferase suppression, dose response, counter-screen for Shn3 inhibitor project, cell-based, Clone20-Shn3RL, cherry-picked (AID 624133). It counts as functional.
Experiment [18] can be described thus: HEK293T cytotoxicity, dose response, cytotoxicity control for miR-122 modulator project, cell-based, inhibitor set, cherry-pick, set 2 (AID 720697). Type of experiment: functional.
The nature of experiment [19]: miR-122 activators in hepatoma reporter cells, dose response, cell-based, Huh7 psiCHECK-miR122, Renilla luciferase, cherry-picked (AID 651956).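 Also: huh7 hepatoma cells stably carrying a psiCHECK-2 miR-122 sensor plasmid; renilla luciferase signal reporting endogenous miR-122 activity after 48 h compound exposure.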 Type of experiment: functional.
A further experiment deals with Beta-galactosidase (Escherichia coli, UniProt Q8VNN2). In words: Dose response counterscreen for EBI2 assay utilizing the enzyme, b-galactosidase. It counts as functional.
Experiment [20] is described as follows: ARNT/TACC3 interaction disruptors, potency, confirmation, biochemical, AlphaScreen, cherry-picked samples (AID 651703).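 Also: His-tagged ARNT PAS-B domain paired with GST-TACC3 E629A dimer coactivator fragment; potency of inhibitors that break up the complex and lower AlphaScreen signal.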 It counts as functional, Homo sapiens.
For another experiment, the target named is T5, Caspase-6 (Homo sapiens, UniProt P55212).
T5 sequence (P55212 whole entry): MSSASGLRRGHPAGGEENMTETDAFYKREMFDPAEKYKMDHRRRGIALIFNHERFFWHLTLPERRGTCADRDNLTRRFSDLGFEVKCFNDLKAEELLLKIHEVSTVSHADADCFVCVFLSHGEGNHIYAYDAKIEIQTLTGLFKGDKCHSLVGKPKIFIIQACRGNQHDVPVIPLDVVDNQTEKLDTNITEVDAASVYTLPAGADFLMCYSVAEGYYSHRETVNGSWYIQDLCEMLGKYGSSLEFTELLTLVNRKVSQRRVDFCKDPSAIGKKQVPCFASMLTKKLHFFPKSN
The experiment in a line: human caspase-6 inhibitors, dose response, biochemical, VEID-R110 fluorescence, cherry-pick (AID 720632).

Experiment [21] addresses DNA dC->dU-editing enzyme APOBEC-3G (Homo sapiens, UniProt Q9HC16). It counts as functional.
The target of experiment [22] is DNA (cytosine-5)-methyltransferase 1 (Homo sapiens, UniProt P26358). In words: DNMT1 methyltransferase inhibitors, confirmation, biochemical, fluorescent molecular beacon (AID 602386). It counts as functional.
For experiment [23], the target named is DNA dC->dU-editing enzyme APOBEC-3A (Homo sapiens, UniProt P31941). The experiment in a line: Dose Response confirmation of small molecule APOBEC3A DNA Deaminase Inhibitors via a fluorescence-based single-stranded DNA deaminase assay. [Related pubchem assays (depositor defined):AID493011, AID493024]. It counts as functional.
Experiment [24] has as its target T6, Carboxy-terminal domain RNA polymerase II polypeptide A small phosphatase 1 (Homo sapiens, UniProt Q9GZU7).
T6 sequence (Q9GZU7 whole entry): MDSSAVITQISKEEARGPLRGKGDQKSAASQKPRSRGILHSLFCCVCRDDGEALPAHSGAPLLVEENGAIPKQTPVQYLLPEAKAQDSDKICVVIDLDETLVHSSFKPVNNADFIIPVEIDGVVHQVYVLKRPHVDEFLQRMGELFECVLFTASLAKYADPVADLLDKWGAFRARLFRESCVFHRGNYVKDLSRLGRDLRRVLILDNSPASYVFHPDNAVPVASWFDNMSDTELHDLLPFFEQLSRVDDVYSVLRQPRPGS
In words: inhibitors of CTDSP1, concentration-response testing, biochemical assay, absorbance-based, actives from ultra-high-throughput screening (AID 540297). It counts as functional.

The target in experiment [25] is Protein-tyrosine kinase 2-beta (Homo sapiens, UniProt Q14289).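 Also: potency of inhibitors of PYK2 kinase phosphorylation of poly-GT substrate.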
Experiment [26] has as its target T7, Beta-lactamase (Pseudomonas aeruginosa, UniProt Q79MP6). The experiment in a line: […] counterscreen for selective VIM-2 inhibitors: dose response biochemical high throughput screening assay to identify inhibitors of IMP-1 metallo-beta-lactamase.
The target in experiment [27] is Beta-lactamase (Salmonella choleraesuis (strain SC-B67), UniProt Q5J463). The experiment in a line: Epi-absorbance-based counterscreen for selective VIM-2 inhibitors: dose response biochemical high throughput screening assay to identify inhibitors of TEM-1 serine-beta-lactamase.
The target in experiment [28] is T7, Beta-lactamase. In words: IMP-1 metallo-beta-lactamase inhibitors, dose response, selectivity assay for VIM-2 inhibitor project, biochemical, epi-absorbance (AID 1920).
Experiment [29] addresses Long-chain-fatty-acid--AMP ligase FadD28 (Mycobacterium tuberculosis, UniProt P9WQ59). The experiment in a line: Fluorescence polarization aasay to screen for inhibitors that compete for the binding of FadD28 to a bisubstrate Measured in Biochemical System Using Plate Reader - 2147-01_Inhibitor_Dose_CherryPick_Activity. Type of experiment: functional, Mycobacterium tuberculosis H37Rv.

The target in experiment [30] is Hepatocyte nuclear factor 4-alpha (Homo sapiens, UniProt P41235). It counts as functional, cell-based.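 Also: biochemical luminescence-based dose-response counterscreen measuring inhibition of HNF4 dimerization, run alongside a screen for blockers of ABHD5–perilipin-5 interaction; split luciferase complementation of HNF4 fusion proteins in cell lysate measuring dimerization.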

The source made the active and inactive calls. A value given as a limit tells only on which side of the number the result lay.

T7 sequence (Q79MP6 whole entry): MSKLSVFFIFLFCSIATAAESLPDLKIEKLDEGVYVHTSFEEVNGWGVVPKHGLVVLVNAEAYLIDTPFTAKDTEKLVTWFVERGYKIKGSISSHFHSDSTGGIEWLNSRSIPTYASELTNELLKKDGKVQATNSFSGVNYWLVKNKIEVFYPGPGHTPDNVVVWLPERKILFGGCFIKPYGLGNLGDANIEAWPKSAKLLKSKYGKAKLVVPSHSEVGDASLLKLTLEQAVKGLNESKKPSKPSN
T1 sequence (Q38C91 whole entry): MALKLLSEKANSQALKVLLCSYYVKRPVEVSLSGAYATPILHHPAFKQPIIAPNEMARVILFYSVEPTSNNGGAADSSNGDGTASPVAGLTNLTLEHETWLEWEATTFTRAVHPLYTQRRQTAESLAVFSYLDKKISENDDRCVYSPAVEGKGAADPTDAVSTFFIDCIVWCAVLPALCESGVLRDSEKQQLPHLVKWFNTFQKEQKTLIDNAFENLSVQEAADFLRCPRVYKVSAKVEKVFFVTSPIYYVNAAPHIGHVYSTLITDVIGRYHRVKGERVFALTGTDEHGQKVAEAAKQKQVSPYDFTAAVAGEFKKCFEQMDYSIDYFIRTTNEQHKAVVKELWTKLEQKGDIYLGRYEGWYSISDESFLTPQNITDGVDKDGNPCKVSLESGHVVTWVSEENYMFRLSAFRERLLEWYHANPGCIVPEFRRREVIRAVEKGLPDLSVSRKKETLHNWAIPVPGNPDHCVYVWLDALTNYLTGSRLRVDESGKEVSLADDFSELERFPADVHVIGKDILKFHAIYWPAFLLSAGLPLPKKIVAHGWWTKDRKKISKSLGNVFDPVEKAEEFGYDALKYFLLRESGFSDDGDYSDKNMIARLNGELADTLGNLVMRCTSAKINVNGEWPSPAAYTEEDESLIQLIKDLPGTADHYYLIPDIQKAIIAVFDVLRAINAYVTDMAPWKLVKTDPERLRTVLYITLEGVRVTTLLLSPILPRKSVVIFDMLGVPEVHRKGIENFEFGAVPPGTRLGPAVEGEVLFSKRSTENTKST
T3 sequence (Q9P0U3 whole entry, the tested form may be a part): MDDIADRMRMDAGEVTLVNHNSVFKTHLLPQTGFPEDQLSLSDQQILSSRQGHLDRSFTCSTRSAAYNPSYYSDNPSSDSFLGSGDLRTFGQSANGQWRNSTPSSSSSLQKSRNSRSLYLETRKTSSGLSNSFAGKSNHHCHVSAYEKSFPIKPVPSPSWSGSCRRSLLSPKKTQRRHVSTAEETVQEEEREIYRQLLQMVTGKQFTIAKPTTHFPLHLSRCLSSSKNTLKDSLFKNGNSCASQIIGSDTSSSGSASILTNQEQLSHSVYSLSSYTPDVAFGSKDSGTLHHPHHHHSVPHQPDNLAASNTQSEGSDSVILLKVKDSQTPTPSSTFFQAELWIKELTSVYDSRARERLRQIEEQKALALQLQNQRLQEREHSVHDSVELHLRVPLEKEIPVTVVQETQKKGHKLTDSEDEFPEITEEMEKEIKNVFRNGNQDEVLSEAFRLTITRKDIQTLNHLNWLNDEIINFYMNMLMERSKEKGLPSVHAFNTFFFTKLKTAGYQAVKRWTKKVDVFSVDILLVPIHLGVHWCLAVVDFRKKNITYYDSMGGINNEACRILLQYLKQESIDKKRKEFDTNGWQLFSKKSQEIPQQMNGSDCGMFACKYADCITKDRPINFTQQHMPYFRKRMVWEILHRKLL
Sequence of DNA dC->dU-editing enzyme APOBEC-3G (Q9HC16 whole entry): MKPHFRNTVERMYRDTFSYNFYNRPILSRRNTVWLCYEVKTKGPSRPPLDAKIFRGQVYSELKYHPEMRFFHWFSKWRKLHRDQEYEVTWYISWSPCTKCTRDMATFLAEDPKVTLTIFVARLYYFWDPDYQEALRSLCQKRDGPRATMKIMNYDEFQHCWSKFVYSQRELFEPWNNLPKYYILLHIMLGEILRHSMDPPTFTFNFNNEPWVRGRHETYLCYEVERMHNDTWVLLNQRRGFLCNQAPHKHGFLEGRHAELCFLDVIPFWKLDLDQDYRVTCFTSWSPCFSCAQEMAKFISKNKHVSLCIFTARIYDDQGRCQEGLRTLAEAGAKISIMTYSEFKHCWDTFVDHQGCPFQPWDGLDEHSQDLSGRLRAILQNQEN
Sequence of Long-chain-fatty-acid--AMP ligase FadD28 (P9WQ59 whole entry): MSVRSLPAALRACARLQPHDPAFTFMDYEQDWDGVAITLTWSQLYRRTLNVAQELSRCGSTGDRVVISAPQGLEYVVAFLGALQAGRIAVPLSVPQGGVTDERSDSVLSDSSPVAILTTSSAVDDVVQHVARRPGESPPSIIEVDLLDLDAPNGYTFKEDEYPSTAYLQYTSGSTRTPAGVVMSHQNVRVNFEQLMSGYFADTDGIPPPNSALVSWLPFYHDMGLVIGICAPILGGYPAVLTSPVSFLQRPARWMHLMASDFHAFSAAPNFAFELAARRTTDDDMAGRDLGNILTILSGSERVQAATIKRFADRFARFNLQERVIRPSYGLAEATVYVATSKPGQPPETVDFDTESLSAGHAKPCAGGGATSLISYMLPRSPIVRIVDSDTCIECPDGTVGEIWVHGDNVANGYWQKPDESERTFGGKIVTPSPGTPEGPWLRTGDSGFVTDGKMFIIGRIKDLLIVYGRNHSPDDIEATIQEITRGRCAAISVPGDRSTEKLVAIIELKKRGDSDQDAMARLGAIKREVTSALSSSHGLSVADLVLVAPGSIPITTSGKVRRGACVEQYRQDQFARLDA
Sequence of G-protein coupled receptor 55 (Q9Y2T6 whole entry): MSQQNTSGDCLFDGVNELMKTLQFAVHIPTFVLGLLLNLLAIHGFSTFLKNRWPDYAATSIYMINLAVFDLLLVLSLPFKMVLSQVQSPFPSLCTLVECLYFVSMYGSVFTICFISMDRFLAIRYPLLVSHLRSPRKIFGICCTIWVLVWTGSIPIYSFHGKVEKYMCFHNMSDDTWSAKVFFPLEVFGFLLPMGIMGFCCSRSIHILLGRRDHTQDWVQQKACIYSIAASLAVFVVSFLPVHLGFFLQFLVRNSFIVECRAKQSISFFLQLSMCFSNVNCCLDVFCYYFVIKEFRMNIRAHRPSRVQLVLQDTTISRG
Sequence of Mitochondrial peptide methionine sulfoxide reductase (P54149 whole entry): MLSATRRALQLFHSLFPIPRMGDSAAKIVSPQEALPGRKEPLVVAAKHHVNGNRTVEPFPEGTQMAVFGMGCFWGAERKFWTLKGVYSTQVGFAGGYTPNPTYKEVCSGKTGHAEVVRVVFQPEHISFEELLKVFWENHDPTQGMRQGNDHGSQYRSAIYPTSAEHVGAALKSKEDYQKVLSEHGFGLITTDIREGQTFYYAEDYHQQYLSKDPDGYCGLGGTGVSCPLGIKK
Sequence of DNA (cytosine-5)-methyltransferase 1 (P26358 whole entry): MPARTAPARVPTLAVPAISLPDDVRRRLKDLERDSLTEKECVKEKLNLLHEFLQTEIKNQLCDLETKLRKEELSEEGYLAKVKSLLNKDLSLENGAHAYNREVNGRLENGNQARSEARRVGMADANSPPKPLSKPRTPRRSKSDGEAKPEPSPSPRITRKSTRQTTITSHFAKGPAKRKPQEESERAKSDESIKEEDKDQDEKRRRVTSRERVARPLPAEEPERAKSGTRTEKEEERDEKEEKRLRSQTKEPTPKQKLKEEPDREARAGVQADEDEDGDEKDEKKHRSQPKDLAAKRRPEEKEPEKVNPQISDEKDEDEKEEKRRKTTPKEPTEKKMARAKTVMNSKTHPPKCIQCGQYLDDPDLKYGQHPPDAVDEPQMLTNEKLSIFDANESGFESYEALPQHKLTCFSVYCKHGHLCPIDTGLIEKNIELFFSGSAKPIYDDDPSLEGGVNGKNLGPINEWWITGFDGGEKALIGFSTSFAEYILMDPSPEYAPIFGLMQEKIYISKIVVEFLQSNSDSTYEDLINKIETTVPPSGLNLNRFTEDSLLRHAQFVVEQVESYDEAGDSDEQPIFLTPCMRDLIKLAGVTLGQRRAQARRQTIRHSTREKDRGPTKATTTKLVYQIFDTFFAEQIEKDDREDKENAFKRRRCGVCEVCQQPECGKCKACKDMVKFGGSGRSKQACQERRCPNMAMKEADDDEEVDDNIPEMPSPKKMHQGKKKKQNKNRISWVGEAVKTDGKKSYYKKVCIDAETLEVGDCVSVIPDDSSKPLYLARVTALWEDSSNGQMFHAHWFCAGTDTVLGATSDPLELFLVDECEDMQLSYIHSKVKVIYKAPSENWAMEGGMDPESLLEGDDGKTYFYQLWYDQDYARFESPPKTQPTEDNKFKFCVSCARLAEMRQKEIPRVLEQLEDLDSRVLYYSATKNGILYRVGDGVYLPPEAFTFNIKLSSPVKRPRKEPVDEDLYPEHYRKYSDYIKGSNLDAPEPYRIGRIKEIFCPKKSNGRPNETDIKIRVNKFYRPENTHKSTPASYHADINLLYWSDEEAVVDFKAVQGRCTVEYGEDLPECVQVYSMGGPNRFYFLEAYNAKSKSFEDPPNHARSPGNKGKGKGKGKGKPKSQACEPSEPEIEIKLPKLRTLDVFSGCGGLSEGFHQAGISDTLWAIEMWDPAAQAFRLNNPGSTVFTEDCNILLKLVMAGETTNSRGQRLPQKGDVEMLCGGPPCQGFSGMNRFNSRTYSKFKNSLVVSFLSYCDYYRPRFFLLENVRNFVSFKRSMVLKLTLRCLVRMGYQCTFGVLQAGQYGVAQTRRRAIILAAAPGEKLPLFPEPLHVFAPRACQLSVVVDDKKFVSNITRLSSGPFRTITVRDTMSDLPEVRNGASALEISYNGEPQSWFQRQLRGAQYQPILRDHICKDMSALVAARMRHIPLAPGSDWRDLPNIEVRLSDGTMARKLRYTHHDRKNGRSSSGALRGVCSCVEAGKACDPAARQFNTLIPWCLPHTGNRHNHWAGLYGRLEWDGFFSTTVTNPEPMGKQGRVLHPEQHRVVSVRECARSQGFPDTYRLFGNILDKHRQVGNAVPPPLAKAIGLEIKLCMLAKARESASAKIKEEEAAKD
Sequence of DNA dC->dU-editing enzyme APOBEC-3A (P31941 whole entry, the tested form may be a part): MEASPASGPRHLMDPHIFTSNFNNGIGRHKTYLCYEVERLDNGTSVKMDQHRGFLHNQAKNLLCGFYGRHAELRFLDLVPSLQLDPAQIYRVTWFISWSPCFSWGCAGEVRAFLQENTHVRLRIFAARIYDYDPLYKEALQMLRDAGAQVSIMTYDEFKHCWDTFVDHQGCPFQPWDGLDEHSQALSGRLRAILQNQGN

`COc1cc(C2C(C(=O)c3sc(C)nc3C)=C(O)C(=O)N2CCN(C)C)cc(OC)c1OC` (centres undefined): the IC50 in [1] is 155 µM (inactive).
Consider `COC(=O)CN1C(=S)N(c2ccc(Cl)cc2)C(=O)C1CC(=O)Nc1ccc(Cl)cc1` (centres undefined), for which the IC50 is 19.7 µM (inactive) in experiment [2], 13.7 µM (inactive) in [3] and 83.3 µM (inactive) in [4].
As for `COc1ccc(NC(=O)Nc2ccc3c(c2)CC(=O)N([C@H](C)CO)C[C@H](C)[C@H](CN(C)Cc2ccc(C(=O)Nc4ccccc4N)cc2)O3)cc1`, in experiment [5], the AC50 is 4.17 µM (active).
For the compound `C[C@@H](NC(=O)C[C@H]1C[C@@H]2c3cc(NC(=O)c4cccnc4)ccc3O[C@@H]2[C@@H](CO)O1)c1ccccc1`, the AbsAC35 in experiment [6] is 222.38 µM.
Take `O=C(COc1ccc2ccc(=O)oc2c1)Nc1cccnc1`: the AC50 in experiment [7] is 13.6 µM (active).
In the case of `Cc1cccc(-c2c3c(=O)n(C)c(=O)n(C)c3c3cccnn23)c1`, the concentration giving a half-maximal response (EC50) in experiment [8] is 87.6 µM (active); in [10], 83.8 µM (active). Moreover, the IC50 in experiment [9] was 11.3 µM (active); in experiment [11] it was 27 µM (inactive).
For the compound `CCCN1C(=O)/C(=C\C=C2\N(CC)c3ccccc3C2(C)C)SC1=S`, the IC50 in [12] is 0.824 µM (active). Further, in experiment [13], the AC50 was > 52 µM (inactive).
On to `COc1ccc(CCNc2ncnc3c2oc2ccccc23)cc1OC`, for which the IC50 at Protein Wnt-3a is 1.07 µM (active); in [15], 5.03 µM (active). Moreover, the AC50 in experiment [14] is 3.79 µM (active); in the experiment on INS1 it was 1.78 µM (active); in [16] it was 0.524 µM (active); in experiment [17], 1.89 µM (active).
As to `C[C@@H]1CN([C@@H](C)CO)S(=O)(=O)c2ccc(C#Cc3ccncc3)cc2O[C@@H]1CN(C)C(=O)Nc1ccc2c(c1)OCO2`, the AC50 in [18] was 10.7 µM (active); in [19], 6.9 µM (active).
For `O=C(c1ccc(-n2cccn2)cc1)N1CCN(c2ncccc2C(F)(F)F)CC1`, the IC50 at Beta-galactosidase was > 80 µM (inactive).
For the compound `Cc1ccc2[nH]c3c(c2c1)CCCC3NCCO` (centres undefined), the values for the half-maximal activity concentration (AC50) (in [20]; at Caspase-6) were 135 µM (active) and 22.2 µM (active), respectively.
Regarding `O=C(COC(=O)c1cc2c(s1)CCC2)Nc1ccc(F)cc1`, the IC50 is 34.6 µM (active) in experiment [21], 10.3 µM (active) in [22], 19.6 µM (active) in experiment [23] and 4.34 µM (active) in [24].
With `O=P(O)(O)c1ccccc1OCc1ccccc1`, the IC50 in experiment [25] was 2.21 µM (active); at Beta-lactamase [26] it was > 59.6 µM (inactive); at Beta-lactamase [27], > 59.6 µM (inactive); at Beta-lactamase [28], > 59.6 µM (inactive).
Regarding `O=C(N/N=C/c1c[nH]c2ccccc12)c1cc(Br)ccc1O`, the concentration at half-maximal activity (AC50) in experiment [29] is 7.18 µM (active).
Regarding `COc1ccc(C(C(=O)Nc2c(C)cccc2C)n2c(=O)c(-c3ccco3)nc3ccccc32)cc1` (centres undefined), in experiment [30], the IC50 was 2.42 µM (active).
